{"source": "paper PMC5218480", "about": "(PLoS ONE, 2017)", "tested_on": "MV-4-11 cells", "experiment": "Gene expression microarray analysis (Affymetrix PrimeView) and GSEA", "type": "cell-based, human", "design": "RFU PODN (11730768_x_at) / Fold change /veh PODN (11730768_x_at) / RFU LINC00158 (11744669_a_at) / Fold change /veh LINC00158 (11744669_a_at) / RFU DUSP10 (11751237_a_at) / Fold change /veh DUSP10 (11751237_a_at) / RFU ID3 (11757404_x_at) / Fold change /veh ID3 (11757404_x_at) / RFU PLEKHG5 (11737974_s_at) / Fold change /veh PLEKHG5 (11737974_s_at) / RFU LRRC4B (11730491_at) / Fold change /veh LRRC4B (11730491_at) / RFU GIMAP4 (11747438_a_at) / Fold change /veh GIMAP4 (11747438_a_at) / RFU KRT8 (11758183_x_at) / Fold change /veh KRT8 (11758183_x_at) / RFU CNN1 (11734310_a_at) / Fold change /veh CNN1 (11734310_a_at) / RFU VPS37D (11726825_at) / Fold change /veh VPS37D (11726825_at) / RFU C10orf10 (11716522_x_at) / Fold change /veh C10orf10 (11716522_x_at) / RFU KIR2DL2 /// KIR2DL4 /// KIR2DL5A /// KIR2DL5B /// KIR2DS1 /// KIR2DS2 /// KIR2DS3 /// KIR2DS4 /// KIR3DL3 /// KIR3DL3 /// KIR3DS1 (11738374_at) / Fold change /veh KIR2DL2 /// KIR2DL4 /// KIR2DL5A /// KIR2DL5B /// KIR2DS1 /// KIR2DS2 /// KIR2DS3 /// KIR2DS4 /// KIR3DL3 /// KIR3DL3 /// KIR3DS1 (11738374_at) / RFU C1QL1 (11718748_at) / Fold change /veh C1QL1 (11718748_at) / RFU TMPRSS4 (11747572_a_at) / Fold change /veh TMPRSS4 (11747572_a_at) / RFU HAMP (11756126_x_at) / Fold change /veh HAMP (11756126_x_at) / RFU RNFT2 (11725882_a_at) / Fold change /veh RNFT2 (11725882_a_at) / RFU NR4A2 (11747474_a_at) / Fold change /veh NR4A2 (11747474_a_at) / RFU ABCC12 (11746883_a_at) / Fold change /veh ABCC12 (11746883_a_at) / RFU TMEM136 (11760407_x_at) / Fold change /veh TMEM136 (11760407_x_at) / RFU CLDN22 /// WWC2 (11732394_at) / Fold change /veh CLDN22 /// WWC2 (11732394_at) / RFU HLA-DPB1 (11760878_x_at) / Fold change /veh HLA-DPB1 (11760878_x_at) / RFU SPINT1 (11716480_a_at) / Fold change /veh SPINT1 (11716480_a_at) / RFU GAP43 (11754022_s_at) / Fold change /veh GAP43 (11754022_s_at) / RFU A4GNT (11735810_at) / Fold change /veh A4GNT (11735810_at) / RFU PRB3 (11715151_x_at) / Fold change /veh PRB3 (11715151_x_at) / RFU TUBB4B (11761932_at) / Fold change /veh TUBB4B (11761932_at) / RFU CAPN14 (11732068_a_at) / Fold change /veh CAPN14 (11732068_a_at) / RFU TMCC2 (11721928_a_at) / Fold change /veh TMCC2 (11721928_a_at) / RFU IRGQ (11745062_a_at) / Fold change /veh IRGQ (11745062_a_at) / RFU FAM174B (11720279_a_at) / Fold change /veh FAM174B (11720279_a_at) / RFU TMPRSS4 (11748680_a_at) / Fold change /veh TMPRSS4 (11748680_a_at) / RFU FAM212B (11763350_a_at) / Fold change /veh FAM212B (11763350_a_at) / RFU PLEKHG5 (11743358_a_at) / Fold change /veh PLEKHG5 (11743358_a_at) / RFU ZSCAN30 (11745921_a_at) / Fold change /veh ZSCAN30 (11745921_a_at) / RFU CMKLR1 (11741424_a_at) / Fold change /veh CMKLR1 (11741424_a_at) / RFU LOC101060620 /// MAPK8IP1 (11723275_at) / Fold change /veh LOC101060620 /// MAPK8IP1 (11723275_at) / RFU SPTSSB (11747773_x_at) / Fold change /veh SPTSSB (11747773_x_at) / RFU PRSS12 (11739890_at) / Fold change /veh PRSS12 (11739890_at) / RFU BIN1 (11741810_x_at) / Fold change /veh BIN1 (11741810_x_at) / RFU WNT11 (11732464_a_at) / Fold change /veh WNT11 (11732464_a_at) / RFU C10orf10 (11716521_a_at) / Fold change /veh C10orf10 (11716521_a_at) / RFU C5orf56 (11738089_at) / Fold change /veh C5orf56 (11738089_at) / RFU CYB561 (11721691_x_at) / Fold change /veh CYB561 (11721691_x_at) / RFU ANKRD19P (11752326_a_at) / Fold change /veh ANKRD19P (11752326_a_at) / RFU OR2T12 /// OR2T33 /// OR2T8 (11738714_s_at) / Fold change /veh OR2T12 /// OR2T33 /// OR2T8 (11738714_s_at) / RFU VCAN (11748164_a_at) / Fold change /veh VCAN (11748164_a_at) / RFU JSRP1 (11732532_at) / Fold change /veh JSRP1 (11732532_at) / RFU KRTAP10-11 (11738290_x_at) / Fold change /veh KRTAP10-11 (11738290_x_at) / RFU MYO3A (11730013_a_at) / Fold change /veh MYO3A (11730013_a_at) / RFU EBF3 (11725865_a_at) / Fold change /veh EBF3 (11725865_a_at) / RFU CAMK2N1 (11719241_x_at) / Fold change /veh CAMK2N1 (11719241_x_at) / RFU C5orf56 (11738088_a_at) / Fold change /veh C5orf56 (11738088_a_at) / RFU OLFML3 (11715873_a_at) / Fold change /veh OLFML3 (11715873_a_at) / RFU LOC100653217 /// NTM (11731650_a_at) / Fold change /veh LOC100653217 /// NTM (11731650_a_at) / RFU MAPK11 (11762145_a_at) / Fold change /veh MAPK11 (11762145_a_at) / RFU FIZ1 (11724087_x_at) / Fold change /veh FIZ1 (11724087_x_at) / RFU OASL (11726364_x_at) / Fold change /veh OASL (11726364_x_at) / RFU SOX15 (11748057_x_at) / Fold change /veh SOX15 (11748057_x_at) / RFU CD79A (11719716_a_at) / Fold change /veh CD79A (11719716_a_at) / RFU HIST1H1D (11736915_at) / Fold change /veh HIST1H1D (11736915_at) / RFU CASKIN2 (11723855_a_at) / Fold change /veh CASKIN2 (11723855_a_at) / RFU LOC730098 (11760151_x_at) / Fold change /veh LOC730098 (11760151_x_at) / RFU OR4N2 (11742367_at) / Fold change /veh OR4N2 (11742367_at) / RFU PRRT2 (11749266_a_at) / Fold change /veh PRRT2 (11749266_a_at) / RFU SNX32 (11753110_a_at) / Fold change /veh SNX32 (11753110_a_at) / RFU CDHR5 (11726645_a_at) / Fold change /veh CDHR5 (11726645_a_at) / RFU RCAN1 (11760418_a_at) / Fold change /veh RCAN1 (11760418_a_at) / RFU FAM167A (11723789_a_at) / Fold change /veh FAM167A (11723789_a_at) / RFU FAM26E (11764081_at) / Fold change /veh FAM26E (11764081_at) / RFU ISYNA1 (11749810_s_at) / Fold change /veh ISYNA1 (11749810_s_at) / RFU ACY1 (11761880_at) / Fold change /veh ACY1 (11761880_at) / RFU 11764098_at / Fold change /veh 11764098_at / RFU SAMD14 (11745864_x_at) / Fold change /veh SAMD14 (11745864_x_at) / RFU NPB (11741838_a_at) / Fold change /veh NPB (11741838_a_at) / RFU TMPRSS6 (11731388_a_at) / Fold change /veh TMPRSS6 (11731388_a_at) / RFU KRTAP10-2 (11738614_at) / Fold change /veh KRTAP10-2 (11738614_at) / RFU ARHGAP8 /// PRR5-ARHGAP8 (11727945_x_at) / Fold change /veh ARHGAP8 /// PRR5-ARHGAP8 (11727945_x_at) / RFU KRTAP5-7 /// NADSYN1 (11734609_at) / Fold change /veh KRTAP5-7 /// NADSYN1 (11734609_at) / RFU RASL12 (11751679_a_at) / Fold change /veh RASL12 (11751679_a_at) / RFU CDKN2B (11736163_a_at) / Fold change /veh CDKN2B (11736163_a_at) / RFU PRF1 (11729649_at) / Fold change /veh PRF1 (11729649_at) / RFU, ZNF638 /// ZNF638-IT1 / Fold change vs veh, ZNF638 /// ZNF638-IT1 / RFU, PANK3 / Fold change vs veh, PANK3 / RFU, SH3YL1 / Fold change vs veh, SH3YL1 / RFU, ZEB2 / Fold change vs veh, ZEB2 / RFU, NRIP1 / Fold change vs veh, NRIP1 / RFU, PTTG1IP / Fold change vs veh, PTTG1IP / RFU, CAPN2 / Fold change vs veh, CAPN2 / RFU, MED14 / Fold change vs veh, MED14 / RFU, SNORA58 / Fold change vs veh, SNORA58 / RFU, C1orf63 / Fold change vs veh, C1orf63 / RFU, LRRFIP1 / Fold change vs veh, LRRFIP1 / RFU, NDUFAF7 / Fold change vs veh, NDUFAF7 / RFU, SLC12A2 / Fold change vs veh, SLC12A2 / RFU, IBTK / Fold change vs veh, IBTK / RFU, ESF1 / Fold change vs veh, ESF1 / Fold change vs veh, TMEM50B / RFU, TAOK1 / Fold change vs veh, TAOK1 / RFU, ACBD3 / Fold change vs veh, ACBD3 / RFU, TMA16 / Fold change vs veh, TMA16 / RFU, RWDD3 / Fold change vs veh, RWDD3 / RFU, BCAT1 / Fold change vs veh, BCAT1 / RFU, EDEM3 / Fold change vs veh, EDEM3 / RFU, TMEM33 / Fold change vs veh, TMEM33 / RFU, WDR75 / Fold change vs veh, WDR75 / RFU, AHCTF1 / Fold change vs veh, AHCTF1 / RFU, TFRC / Fold change vs veh, TFRC / RFU, ZDHHC17 / Fold change vs veh, ZDHHC17 / RFU, NOM1 / Fold change vs veh, NOM1 / RFU, ARL8B / Fold change vs veh, ARL8B / RFU, ZBTB11 / Fold change vs veh, ZBTB11 / RFU, TAMM41 / Fold change vs veh, TAMM41 / RFU, KIAA1704 /// LOC100996395 / Fold change vs veh, KIAA1704 /// LOC100996395 / RFU, ING1 / Fold change vs veh, ING1 / RFU, TRMT61B / Fold change vs veh, TRMT61B / RFU, FUBP3 / Fold change vs veh, FUBP3 / RFU, TP53 / Fold change vs veh, TP53 / RFU, TNKS2 / Fold change vs veh, TNKS2 / RFU, ZFP14 / Fold change vs veh, ZFP14 / RFU, ACTR2 / Fold change vs veh, ACTR2 / RFU, PPP3R1 / Fold change vs veh, PPP3R1 / RFU, PIK3R1 / Fold change vs veh, PIK3R1 / RFU, HNRNPA1 / Fold change vs veh, HNRNPA1 / RFU, RNF170 / Fold change vs veh, RNF170 / RFU, ZNF28 / Fold change vs veh, ZNF28 / RFU, RNGTT / Fold change vs veh, RNGTT / RFU, OGT / Fold change vs veh, OGT / RFU, BRD1 / Fold change vs veh, BRD1 / RFU, MARS / Fold change vs veh, MARS / RFU, ZNF655 / Fold change vs veh, ZNF655 / RFU, FAHD1 / Fold change vs veh, FAHD1 / RFU, BDP1 / Fold change vs veh, BDP1 / RFU, LRRCC1 / Fold change vs veh, LRRCC1 / RFU, ARID1A / Fold change vs veh, ARID1A / RFU, ZNF146 / Fold change vs veh, ZNF146 / RFU, ZNF330 / Fold change vs veh, ZNF330 / RFU, GPN3 / Fold change vs veh, GPN3 / RFU, C9orf123 / Fold change vs veh, C9orf123 / RFU, N4BP2L2 / Fold change vs veh, N4BP2L2 / RFU, ARFIP1 / Fold change vs veh, ARFIP1 / RFU, FAM179B / Fold change vs veh, FAM179B / RFU, BCL10 / Fold change vs veh, BCL10 / RFU, UHRF1BP1L / Fold change vs veh, UHRF1BP1L / RFU, BET1 / Fold change vs veh, BET1 / RFU, CNOT2 / Fold change vs veh, CNOT2 / RFU, ZNF268 / Fold change vs veh, ZNF268 / Fold change vs veh, ZNF507 / RFU, DGCR2 / Fold change vs veh, DGCR2 / RFU, WDSUB1 / Fold change vs veh, WDSUB1 / Fold change vs veh, HSP90B1 /// MIR3652 / RFU, ADSS / Fold change vs veh, ADSS / RFU, GK / Fold change vs veh, GK / RFU, ZNF148 / Fold change vs veh, ZNF148 / RFU, TAF9 / Fold change vs veh, TAF9 / RFU, SLC1A5 / Fold change vs veh, SLC1A5 / RFU, SLMO2 / Fold change vs veh, SLMO2 / RFU, ABCC4 / Fold change vs veh, ABCC4 / RFU, LOC101060439 /// RAP1B / Fold change vs veh, LOC101060439 /// RAP1B / RFU, RFX7 / Fold change vs veh, RFX7 / RFU, GTPBP10 / Fold change vs veh, GTPBP10 / RFU, CNEP1R1 / Fold change vs veh, CNEP1R1 / RFU, BIVM-ERCC5 /// ERCC5 / Fold change vs veh, BIVM-ERCC5 /// ERCC5 / RFU, ILF3 / Fold change vs veh, ILF3 / RFU 11762660_at / Fold change /veh 11762660_at / RFU VCAN (11757783_s_at) / Fold change /veh VCAN (11757783_s_at) / RFU DDX43 (11728927_at) / Fold change /veh DDX43 (11728927_at) / RFU KRT8 (11758188_x_at) / Fold change /veh KRT8 (11758188_x_at) / RFU NKD1 (11759106_at) / Fold change /veh NKD1 (11759106_at) / RFU SRD5A1 (11742802_a_at) / Fold change /veh SRD5A1 (11742802_a_at) / RFU TPSAB1 /// TPSB2 (11721975_s_at) / Fold change /veh TPSAB1 /// TPSB2 (11721975_s_at) / RFU GSTM3 (11746129_a_at) / Fold change /veh GSTM3 (11746129_a_at) / RFU IL23R (11737362_x_at) / Fold change /veh IL23R (11737362_x_at) / RFU TMEM51 (11727254_a_at) / Fold change /veh TMEM51 (11727254_a_at) / RFU PIWIL2 (11732686_x_at) / Fold change /veh PIWIL2 (11732686_x_at) / RFU ORM1 (11744905_x_at) / Fold change /veh ORM1 (11744905_x_at) / RFU CCDC152 (11743942_at) / Fold change /veh CCDC152 (11743942_at) / RFU ECM1 (11717891_a_at) / Fold change /veh ECM1 (11717891_a_at) / RFU IL23R (11748794_a_at) / Fold change /veh IL23R (11748794_a_at) / RFU TNFAIP8L3 (11732012_x_at) / Fold change /veh TNFAIP8L3 (11732012_x_at) / RFU MBOAT4 (11741988_at) / Fold change /veh MBOAT4 (11741988_at) / RFU 11764193_at / Fold change /veh 11764193_at / RFU TMEM53 (11763286_at) / Fold change /veh TMEM53 (11763286_at) / RFU MAGEB2 (11727129_at) / Fold change /veh MAGEB2 (11727129_at) / RFU TMEM200A (11744735_a_at) / Fold change /veh TMEM200A (11744735_a_at) / RFU CCDC152 (11751479_a_at) / Fold change /veh CCDC152 (11751479_a_at) / RFU FAM211A (11726209_a_at) / Fold change /veh FAM211A (11726209_a_at) / RFU RGS16 (11746705_a_at) / Fold change /veh RGS16 (11746705_a_at) / RFU VCAN (11755009_s_at) / Fold change /veh VCAN (11755009_s_at) / RFU RHOB (11743442_s_at) / Fold change /veh RHOB (11743442_s_at) / RFU RGS16 (11720943_a_at) / Fold change /veh RGS16 (11720943_a_at) / RFU RGS16 (11720944_at) / Fold change /veh RGS16 (11720944_at) / RFU, VPS4B / Fold change vs veh, VPS4B / RFU, CREB1 / Fold change vs veh, CREB1 / RFU, DNAJC13 / Fold change vs veh, DNAJC13 / RFU, GNAQ / Fold change vs veh, GNAQ / RFU, CDK5R1 / Fold change vs veh, CDK5R1 / RFU, ZRANB3 / Fold change vs veh, ZRANB3 / RFU, CUL4A / Fold change vs veh, CUL4A / RFU, CCNY / Fold change vs veh, CCNY / RFU, UFL1 / Fold change vs veh, UFL1 / RFU, COG3 / Fold change vs veh, COG3 / RFU, DIAPH2 / Fold change vs veh, DIAPH2 / RFU, SKA2 / Fold change vs veh, SKA2 / RFU, AFF3 / Fold change vs veh, AFF3 / RFU, LMF1 / Fold change vs veh, LMF1 / RFU, IPO11 / Fold change vs veh, IPO11 / RFU, DFFB / Fold change vs veh, DFFB / RFU, FOXP1 / Fold change vs veh, FOXP1 / RFU, CARD8 / Fold change vs veh, CARD8 / RFU, STRN3 / Fold change vs veh, STRN3 / RFU, ADK / Fold change vs veh, ADK / RFU, RASSF2 / Fold change vs veh, RASSF2 / RFU, WIPF1 / Fold change vs veh, WIPF1 / RFU, LARP1B / Fold change vs veh, LARP1B / RFU, RASA1 / Fold change vs veh, RASA1 / RFU, RB1 / Fold change vs veh, RB1 / RFU, PPFIA1 / Fold change vs veh, PPFIA1 / RFU, MAT2A / Fold change vs veh, MAT2A / RFU, CCT5 / Fold change vs veh, CCT5 / RFU, WDR92 / Fold change vs veh, WDR92 / RFU, CUX1 / Fold change vs veh, CUX1 / RFU, TTC7A / Fold change vs veh, TTC7A / RFU, TMEM135 / Fold change vs veh, TMEM135 / RFU, DEPTOR / Fold change vs veh, DEPTOR / RFU, CPM / Fold change vs veh, CPM / RFU, DNAJB6 / Fold change vs veh, DNAJB6 / RFU, CACNA2D3 / Fold change vs veh, CACNA2D3 / RFU, DTX4 / Fold change vs veh, DTX4 / RFU, TFCP2 / Fold change vs veh, TFCP2 / RFU, GMCL1 /// GMCL1P1 / Fold change vs veh, GMCL1 /// GMCL1P1 / RFU, AEBP2 / Fold change vs veh, AEBP2 / RFU, SNHG1 /// SNORD22 /// SNORD25 /// SNORD26 /// SNORD27 /// SNORD28 /// SNORD29 /// SNORD31 / Fold change vs veh, SNHG1 /// SNORD22 /// SNORD25 /// SNORD26 /// SNORD27 /// SNORD28 /// SNORD29 /// SNORD31 / Fold change (Aza/veh), C12orf56 (ProbeSet 11735607_a_at) / Fold change (ACY-1035/veh), C12orf56 (ProbeSet 11735607_a_at) / Fold change (Aza/veh), FGFR1OP (ProbeSet 11751329_s_at) / Fold change (ACY-1035/veh), FGFR1OP (ProbeSet 11751329_s_at) / Fold change (Aza/veh), VPS36 (ProbeSet 11739960_a_at) / Fold change (ACY-1035/veh), VPS36 (ProbeSet 11739960_a_at) / RFU SYPL1 (11715823_x_at) / Fold change /veh SYPL1 (11715823_x_at) / RFU IGFBP7 (11715501_s_at) / Fold change /veh IGFBP7 (11715501_s_at) / RFU REEP3 (11722064_at) / Fold change /veh REEP3 (11722064_at) / RFU IGLL1 (11728026_x_at) / Fold change /veh IGLL1 (11728026_x_at): dose or concentration left out as unconfirmed", "conditions": "MV-4-11 cells, 48 hours", "data": [{"smiles": "Nc1ncn([C@@H]2O[C@H](CO)[C@@H](O)[C@H]2O)c(=O)n1", "note": "[azacitidine]", "values": [{"measurement": "RFU RASL12 (11751679_a_at)", "value": 15.38, "unit": "RFU"}]}]}
